Reference: US20240287138A1, “CYCLIC PEPTIDES FOR INHIBITING TNF RECEPTOR 1 ACTIVITY” (Merck Sharp & Dohme LLC, priority 2023, published 2024)
Numbered stars: 1 amine (or outer) side, 2 acyl side, 3 side chain; on linkers, the order of the positions; unused ones are H or OH. Bridge positions count the residues as written; N and C are the ends. Square brackets hold non-standard residues; d marks the D form. Peptide text beside a SMILES is read from it. Trp(βS-Me,7-OMe) = COc1cccc2c([C@H](C)[C@H](N)C(=O)O)c[nH]c12; X49 = C[N+](C)(C)CC(=O)N[C@H]1C[C@H](C(=O)[*:2])N([*:1])C1; Trp(1-CH2COOH) = N[C@@H](Cc1cn(CC(=O)O)c2ccccc12)C(=O)O; Phe(4-NHCONH2) = NC(=O)Nc1ccc(C[C@H](N)C(=O)O)cc1; Trp(7-CN) = N#Cc1cccc2c(C[C@H](N)C(=O)O)c[nH]c12; Trp(7-Cl) = N[C@@H](Cc1c[nH]c2c(Cl)cccc12)C(=O)O; Phe(3-CONH2) = NC(=O)c1cccc(C[C@H](N)C(=O)O)c1; Phe(4-CONH2) = NC(=O)c1ccc(C[C@H](N)C(=O)O)cc1; Phe(4-COOH) = N[C@@H](Cc1ccc(C(=O)O)cc1)C(=O)O; Trp(7-aza) = N[C@@H](Cc1c[nH]c2ncccc12)C(=O)O; dPro(4S-NH2) = N[C@@H]1CN[C@@H](C(=O)O)C1; Pip(5R-OH) = O=C(O)[C@@H]1CC[C@@H](O)CN1; X1 = O=C([C@@H]1CC[C@H](N[*:1])C1)[*:2]; Pip(4-aza) = O=C(O)[C@@H]1CNCCN1; 4Pal = N[C@@H](Cc1ccncc1)C(=O)O; NMeE = CN[C@@H](CCC(=O)O)C(=O)O; X61 = O=C(CN(CCCO)[*:1])[*:2]; Ahp(2) = CCCCC[C@H](N)C(=O)O; NMeS = CN[C@@H](CO)C(=O)O; Pip = O=C(O)[C@@H]1CCCCN1; αMeS = C[C@](N)(CO)C(=O)O; Nle = CCCC[C@H](N)C(=O)O; Sar = CNCC(=O)O

Each molecule was assayed against T1, human soluble TNFR1 (sTNFR1) (Homo sapiens, UniProt P19438) (assay: Human sTNFR1-peptide displacement assay (LanthaScreen Eu TR-FRET binding assay)). Conditions: not given.
T1 construct: made in house; host or cells: Sf21 (baculovirus)
T1 sequence (P19438 with tags, fused parts or gaps): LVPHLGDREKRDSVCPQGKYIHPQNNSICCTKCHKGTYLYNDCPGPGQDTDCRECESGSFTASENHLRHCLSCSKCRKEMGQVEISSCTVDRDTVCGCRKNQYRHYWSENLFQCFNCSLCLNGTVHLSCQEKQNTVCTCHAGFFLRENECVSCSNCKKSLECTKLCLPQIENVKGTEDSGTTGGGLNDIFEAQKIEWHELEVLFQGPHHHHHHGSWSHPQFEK
Protocol: A. Procedure for Human sTNFR1-Peptide Displacement Assay
The affinity was determined using LanthaScreen Eu-based time-resolved fluorescence resonance energy transfer (TR-FRET)-based binding assay.
A TR-FRET assay measuring the displacement of biotinylated peptide SEQ ID NO. 1 from human soluble TNFR1 (sTNFR1) in a pre-formed complex by a macrocyclic peptide yields the affinity (Kd^app) of the cyclic peptide for sTNFR1. The reagents for the assay include: the C′-terminally 6His-tagged sTNFR1 (residues 1-211) protein purified from a Sf21 baculovirus expression system, the biotin-tagged B0372 peptide described in section “Preparation of Final Compounds”, part E, the LanthaScreen™ anti-His Tag Europium donor (Life Technologies Corporation (San Diego, CA), cat. #PV5597), and a streptavidin-conjugate Alexa Fluor™ 647 acceptor (Invitrogen (Waltham, MA), cat. #S32357). Time-resolved TR-FRET is achieved when sTNFR1 is bound to biotinylated peptide SEQ ID NO. 1 through coupling of the donor and acceptor FRET pair.
100 nM biotinylated peptide SEQ ID NO. […] 100 nM biotinylated peptide SEQ ID NO. 1 was chosen as it reflects the ˜Kd for this complex. After 30 min at ambient temperature, each test peptide (2 mM stock in DMSO) is titrated in a 20 point, ˜3-fold discrete dose-response using an acoustic-dispense liquid handler. Specifically, 80 nL of peptide/DMSO is transferred into a ProxiPlate-384 Plus 384-well assay plate (PerkinElmer, cat. #6008289). To this plate, 8 μL of the previously formed sTNFR 1-biotinylated peptide SEQ ID NO. 1 complex is added and allowed to reach binding equilibrium with the test peptide at ambient temperature for 90 min.
The TR-FRET signal is measured with the following EnVision® settings: excitation laser at 337 nm; emission1=615 nm, emission2=665 nm, LANCE/DELFIA dichroic mirror, delay time=[…]. The signal of each well is determined as the ratio of the emission at 665 nm to that at 615 nm. Percent displacement is determined by normalization to control wells containing DMSO (0%) or a saturating concentration of a displaceable peptide (100%). The %-effect as a function of peptide concentration is fit to a five-parameter logistic fit based on the Morrison equation to account for tight binding kinetics.

SMILES	Kd [nM]	IC50 [nM]
CCCCC[C@@H]1NC(=O)[C@@H]2CC[C@@H](C2)NC(=O)[C@H]([C@@H](C)c2c[nH]c3c(OC)cccc23)NC(=O)CN(C)C(=O)[C@H](Cc2cn(CC(=O)O)c3ccccc23)NC(=O)[C@H](Cc2ccc(C(N)=O)cc2)NC(=O)[C@](C)(CO)NC(=O)[C@H](Cc2c[nH]c3c(C#N)cccc23)NC(=O)[C@H](Cc2ccc(C(=O)O)cc2)NC(=O)[C@H](CC(N)=O)NC(=O)[C@H]2C[C@H](N)CN2C(=O)[C@H](Cc2c[nH]c3ccccc23)NC(=O)[C@@H]2CC[C@@H](O)CN2C(=O)[C@H](Cc2ccncc2)NC1=O [SEQ ID NO. 150] (cyclo([4Pal][Pip(5R-OH)]W[dPro(4S-NH2)]N[Phe(4-COOH)][Trp(7-CN)][αMeS][Phe(4-CONH2)][Trp(1-CH2COOH)][Sar][Trp(βS-Me,7-OMe)][X1][Ahp(2)]))	0.23	–
CCCC[C@@H]1NC(=O)[C@@H]2CC[C@@H](C2)NC(=O)[C@H]([C@@H](C)c2c[nH]c3c(OC)cccc23)NC(=O)CN(C)C(=O)[C@H](Cc2ccc(O)cc2)NC(=O)[C@H](Cc2ccc(C(N)=O)cc2)NC(=O)[C@](C)(CO)NC(=O)[C@H](Cc2c[nH]c3c(Cl)cccc23)NC(=O)[C@H](Cc2ccc(NC(N)=O)cc2)NC(=O)[C@H](CC(N)=O)NC(=O)[C@H](CCC(=O)O)N(C)C(=O)[C@H](Cc2c[nH]c3ccccc23)NC(=O)[C@@H]2CC[C@@H](O)CN2C(=O)[C@H](Cc2ccncc2)NC1=O [SEQ ID NO. 165] (cyclo([4Pal][Pip(5R-OH)]W[NMeE]N[Phe(4-NHCONH2)][Trp(7-Cl)][αMeS][Phe(4-CONH2)]Y[Sar][Trp(βS-Me,7-OMe)][X1][Nle]))	0.18	–
CCCC[C@@H]1NC(=O)CSC[C@@H](C(N)=O)NC(=O)[C@H]([C@@H](C)c2c[nH]c3c(OC)cccc23)NC(=O)CN(C)C(=O)[C@H](Cc2ccc(O)cc2)NC(=O)[C@H](Cc2ccc(C(=O)O)cc2)NC(=O)[C@](C)(CO)NC(=O)[C@H](Cc2c[nH]c3c(Cl)cccc23)NC(=O)[C@H](Cc2ccncc2)NC(=O)[C@H](CC(N)=O)NC(=O)CN(CCCO)C(=O)[C@H](Cc2c[nH]c3ncccc23)NC(=O)[C@@H]2CCCCN2C(=O)[C@H](Cc2ccncc2)NC1=O [SEQ ID NO. 170] ({CH2CO}-[Nle][4Pal][Pip][Trp(7-aza)][X61]N[4Pal][Trp(7-Cl)][αMeS][Phe(4-COOH)]Y[Sar][Trp(βS-Me,7-OMe)]C-NH2; thioether N-14)	0.56	0.6

Each molecule was assayed against T2, TNFα-induced NF-κB signal transduction pathway (TNFR1 signaling) in THP-1 cells (Homo sapiens, UniProt P19438) (assay: THP-1 Lucia NF-κB reporter cell assay, inhibition of TNFα-induced NF-κB signaling). Conditions: THP-1 NF-κB Lucia reporter cells, 10 ng/mL TNFα, 16-18 h, secreted luciferase; read-out: THP-1 IC50.
T2 sequence (P19438 30-455): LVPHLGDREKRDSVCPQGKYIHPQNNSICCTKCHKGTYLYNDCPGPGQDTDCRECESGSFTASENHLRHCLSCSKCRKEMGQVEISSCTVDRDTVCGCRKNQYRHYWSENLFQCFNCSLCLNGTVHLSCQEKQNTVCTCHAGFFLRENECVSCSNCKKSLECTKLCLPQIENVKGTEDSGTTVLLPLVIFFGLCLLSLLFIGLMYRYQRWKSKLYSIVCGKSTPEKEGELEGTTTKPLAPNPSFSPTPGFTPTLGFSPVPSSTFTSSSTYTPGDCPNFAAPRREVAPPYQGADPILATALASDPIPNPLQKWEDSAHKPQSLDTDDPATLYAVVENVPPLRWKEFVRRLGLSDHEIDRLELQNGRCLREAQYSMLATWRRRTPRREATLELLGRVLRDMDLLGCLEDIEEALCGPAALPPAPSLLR
Assay type: cell-based
In short: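 Inhibition of TNFR1-driven NF-κB activation was measured as luminescence of secreted reporter luciferase following overnight (16-18 h) stimulation with 10 ng/mL TNFα.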

SMILES	IC50 [nM]
CCCC[C@@H]1NC(=O)[C@@H]2CC[C@@H](C2)NC(=O)[C@H]([C@@H](C)c2c[nH]c3c(OC)cccc23)NC(=O)CN(C)C(=O)[C@H](Cc2ccc(C(=O)O)cc2)NC(=O)[C@H](Cc2ccc(C(N)=O)cc2)NC(=O)[C@](C)(CO)NC(=O)[C@H](Cc2c[nH]c3c(C#N)cccc23)NC(=O)[C@H](Cc2ccc(C(=O)O)cc2)NC(=O)[C@H](CC(N)=O)NC(=O)[C@H]2C[C@H](NC(=O)C[N+](C)(C)C)CN2C(=O)[C@H](Cc2cn(CC(=O)O)c3ccccc23)NC(=O)[C@@H]2CNCCN2C(=O)[C@H](Cc2ccncc2)NC1=O [SEQ ID NO. 139] (cyclo([4Pal][Pip(4-aza)][Trp(1-CH2COOH)][X49]N[Phe(4-COOH)][Trp(7-CN)][αMeS][Phe(4-CONH2)][Phe(4-COOH)][Sar][Trp(βS-Me,7-OMe)][X1][Nle]))	1
CCCC[C@@H]1NC(=O)CSC[C@@H](C(N)=O)NC(=O)[C@H]([C@@H](C)c2c[nH]c3c(OC)cccc23)NC(=O)CN(C)C(=O)[C@H](Cc2cccc(C(N)=O)c2)NC(=O)[C@H](Cc2ccc(C(=O)O)cc2)NC(=O)[C@](C)(CO)NC(=O)[C@H](Cc2c[nH]c3c(Cl)cccc23)NC(=O)[C@H](Cc2ccncc2)NC(=O)[C@H](CC(N)=O)NC(=O)[C@H](CCC(=O)O)N(C)C(=O)[C@H](Cc2c[nH]c3ccccc23)NC(=O)[C@H](CO)N(C)C(=O)[C@H](Cc2ccncc2)NC1=O [SEQ ID NO. 270] ({CH2CO}-[Nle][4Pal][NMeS]W[NMeE]N[4Pal][Trp(7-Cl)][αMeS][Phe(4-COOH)][Phe(3-CONH2)][Sar][Trp(βS-Me,7-OMe)]C-NH2; thioether N-14)	2.2
